14 compounds from patent US4209527A, “Benzimidazolone derivatives” (Pfizer Inc., priority 1979, dated 1980) can be followed below.

The term inhibition denotes the change of the read-out against control, counted positive when it falls. A higher inhibition goes with strong suppression.

Where a name gives a salt, the structure may show the parent alone.

System in one series: not listed separately
The series can be described thus: solubility in water. The following applies: amorphous powder, freeze-dried. Type of series: physicochemical. On the procedure: The sodium salt of 3-benzyl-2-oxo-1-benzimidazolineacetic acid is prepared by dissolving said compound in water containing an equivalent amount in moles of sodium hydroxide and then freeze-drying the mixture.
Consider `O=C(O)Cn1c(=O)n(Cc2ccccc2)c2ccccc21` [Example 35, sodium salt of 3-benzyl-2-oxo-1-benzimidazolineacetic acid], for which the solubility in water entry is on record as “freely-soluble in water”.

System in another series: not listed separately
Kind of series: toxic side effects / untoward pharmacological side reactions. The following applies: diabetic rats, oral, 2.5 mg./kg. to 25 mg./kg. Type of series: in vivo, rat. The source says:
As previously indicated, the 3-(substituted methyl)-2-oxo-1-benzimidazolinealkanoic acid final products of this invention are all readily adapted to therapeutic use as aldose reductase inhibitors for the control of chronic diabetic complications, in view of their ability to reduce lens sorbitol levels in diabetic subjects to a statistically significant degree. […] Furthermore, the herein described compounds of this invention can be administered by either the oral or parenteral routes of administration, for the present purposes at hand, without causing any significant untoward pharmacological side reactions to occur in the subject to whom they are so administered. In general, these compounds are ordinarily administered in dosages ranging from about 0.25 mg. to about 25 mg. per kg. of body weight per day, although variations will necessarily occur depending upon the weight and condition of the subject being treated and the particular route of administration chosen.
With `O=C(O)Cn1c(=O)n(Cc2ccccc2)c2ccccc21` [Example 15, 3-benzyl-2-oxo-1-benzimidazolineacetic acid], the “signs of toxic side effects” value is listed as “without showing any substantial signs of toxic side effects”.

In another series the target is T1, aldose reductase (Bos taurus, UniProt P16116).
T1 construct: partially purified aldose reductase enzyme obtained from calf lens; from tissue; host or cells: calf lens
The series can be described thus: inhibition of aldose reductase enzyme activity (procedure of S. Hayman et al., modified by K. Sestanj et al.). In kind it is biochemical. The following applies: 10^-4 M; partially purified enzyme from calf lens. On the procedure: The activity of the compounds of the present invention, as agents for the control of chronic diabetic complications, is determined by their ability to successfully pass one or more of the following standard biological and/or pharmacological tests, viz., (1) measuring their ability to inhibit the enzyme activity of isolated aldose reductase; (2) measuring their ability to reduce or inhibit sorbitol accumulation in the sciatic nerve of acutely streptozotocinized (i.e., diabetic) rats; (3) measuring their ability to reverse already-elevated sorbitol levels in the sciatic nerve and lens of chronic streptozotocin-induced diabetic rats; (4) measuring their ability to prevent or inhibit galactitol formation in the lens of acutely galactosemic rats and (5) measuring their ability to delay cataract formation and reduce the severity of lens opacities in chronic galactosemic rats.
The following 3-(substituted methyl)-2-oxo-1-benzimidazolinealkanoic acid final products of Examples 15-24 and 26-28, respectively, were tested at a concentration level of 10^-4 M for their ability to reduce or inhibit aldose reductase enzyme activity via the procedure of S. Hayman et al., as described in the Journal of Biological Chemistry, Vol. 240, p. 877 (1965) and as modified by K. Sestanj et al. in U.S. Pat. No. 3,821,383. In every case, the substrate employed was partially purified aldose reductase enzyme obtained from calf lens.
`O=C(O)Cn1c(=O)n(Cc2ccccc2)c2cc(Cl)c(Cl)cc21` [Example 24, 3-benzyl-5,6-dichloro-2-oxo-1-benzimidazolineacetic acid] displayed an inhibition at 100 µM of 89%.
On the same count and under the same terms, the result for `O=C(O)Cn1c(=O)n(Cc2ccc(Cl)cc2Cl)c2ccccc21` [Example 20, 3-(2,4-dichlorobenzyl)-2-oxo-1-benzimidazolelineacetic acid] reads 87%.
On the same count and under the same terms, next, `O=C(O)CCn1c(=O)n(Cc2ccc(Cl)c(Cl)c2)c2ccccc21` [Example 28, β-[3-(3,4-dichlorobenzyl)-2-oxo-1-benzimidazoline]propionic acid]: 90%.
Still for that read-out and setting: next, `O=C(O)Cn1c(=O)n(Cc2ccc(Cl)c(Cl)c2)c2cc(Cl)c(Cl)cc21` [Example 26, 3-(3,4-dichlorobenzyl)-5,6-dichloro-2-oxo-1-benzimidazolineacetic acid]: 82%; `CC(C(=O)O)n1c(=O)n(Cc2ccc(Cl)c(Cl)c2)c2ccccc21` (stereo not drawn) [Example 27, α-[3-(3,4-dichlorobenzyl)-2-oxo-1-benzimidazoline]propionic acid]: 91%; `Cc1ccc(Cn2c(=O)n(CC(=O)O)c3ccccc32)cc1` [Example 16, 3-(p-xylyl)-2-oxo-1-benzimidazolineacetic acid]: 86%.
Compound `O=C(O)Cn1c(=O)n(Cc2ccc3ccccc3c2)c2ccccc21` [Example 22, 3-(β-naphthyl)methyl-2-oxo-1-benzimidazolineacetic acid] came in with an inhibition at 100 µM of 86%.
On the same count and under the same terms, next, `O=C(O)Cn1c(=O)n(Cc2ccccc2)c2ccccc21` [Example 15, 3-benzyl-2-oxo-1-benzimidazolineacetic acid]: 84%; `O=C(O)Cn1c(=O)n(CC(=O)c2ccc(Cl)cc2Cl)c2ccccc21` [Example 23, 3-(2,4-dichlorobenzoylmethyl)-2-oxo-1-benzimidazolineacetic acid]: 71%; `O=C(O)Cn1c(=O)n(Cc2ccc(Cl)c(Cl)c2)c2ccccc21` [Example 19, 3-(3,4-dichlorobenzyl)-2-oxo-1-benzimidazolineacetic acid]: 89%.
The same measure, in the same setting: next, `O=C(O)Cn1c(=O)n(Cc2cccc3ccccc23)c2ccccc21` [Example 21, 3-(α-naphthyl)methyl-2-oxo-1-benzimidazolineacetic acid]: 92%; `O=C(O)Cn1c(=O)n(Cc2ccc(Cl)cc2)c2ccccc21` [Example 17, 3-(p-chlorobenzyl)-2-oxo-1-benzimidazolineacetic acid]: 88%.
On the same count and under the same terms, next, `COc1ccc(Cn2c(=O)n(CC(=O)O)c3ccccc32)cc1` [Example 18, 3-(p-methoxybenzyl)-2-oxo-1-benzimidazolineacetic acid]: 88%.
